Data from patent US9249098B2 (priority 2012, dated 2016).
Read-outs that look alike come from different tables or passages of the source.

Legend:
[1] = target: T1, acetylcholinesterase (AChE) (Electrophorus electricus, UniProt O42275); assay: biochemical; settings: room temperature, pH 8, acetylthiocholine iodide substrate; read-out: IC50, inhibition of AChE enzyme activity
T1 construct: purchased Sigma C2888
Description: Enzymatic assay. […] The purified/synthesized compounds or compound mixtures were tested. Assay kit was from Invitrogen. AChE enzyme was from Sigma or prepared from human erythrocyte. Acetylcholine and other reagents and buffers were from Sigma. The assay solution consisted of 0.1 M phosphate buffer pH 8, 0.5 mM 5,5′-dithiobis (2-nitrobenzoic acid) (DTNB, Ellman's reagent), 0.01 unit acetylcholinesterase (Sigma Cat. No. C2888), and 0.5 mM acetylthiocholine iodide (ATCI) as the substrate. Test compounds were added to the assay solution and pre-incubated with the enzyme for 5 min at room temperature before addition of the substrate. […] Duplicate sampling was made for each sample. Test compound inhibition to enzyme activity was calculated relative to the positive control without presence of test compound. Negative controls were samples without enzyme.
Experimental procedures were described in the embodiments of this invention.

[2] = Acute toxicity in mice (LD50); settings: both sexes, mouse, in vivo; CD-1 mice, dosed orally (PO), 7-day acute toxicity
Description: Animal toxicological tests. 7-day acute toxicity evaluation was done for selected compounds of this invention on mice and rats. Male and female CD-1 mice (25-30 grams) or SD rats (150-240 grams) were used. The animals were acclimated for 1 week prior to the experiment. The test compounds were dissolved in saline and were dosed orally (PO). Five groups (3 doses plus 1 vehicle and 1 naïve) and 10 mice per group (half male and half female) were used for each compound. All animals were fasted overnight before study. After dosing, animals were placed individually in soft-bedding cages without cage covers. Animal behavioral changes were continuously monitored for 4 hours including autonomic abnormalities (salivation, lacrimation, piloerection, yawning, palpebral closures), neuromuscular abnormalities (posture, gait, fasciculation, convulsions), stereotypical behaviors (sleep, alert, hyper/hypo-activity, slow patterned, fast patterned, restricted, dyskinetic-reactive signs etc.) and lethality. Observations for general health, mortality and moribundity were conducted twice daily after 24 hours. All animals surviving the 7-day observation period were sacrificed by carbon dioxide asphyxiation. Gross necropsies were performed on all animals sacrificed including examinations of main organs and tissue (lung, liver, kidney, heart, intestine, brain).
Acute toxicity for selected compounds of this invention was measured in mice according to the procedure illustrated in the embodiments. Male and female CD-1 mice (n=2-5/gender/compound dose, 25-32 grams) were from Shanghai Sino-British SIPPR/BK Lab Animal Ltd. Table 4 lists toxicology study observations for selected compounds.

[3] = in vivo; settings: male, Sprague-Dawley, plasma, rat
Description: Pharmacokinetics (PK) measurement. […] A total of 6 male experimental SD rats, approximately 8 weeks of age (180-250 g body weight) were used. For intravenous bolus injection (IV), the animals were placed in a polycarbonate restraint device and dosed via the tail vein. For oral dose (PO), the animals were dosed via oral gavage. […] The plasma samples were extracted by protein precipitation using 4 volume of CH3CN containing fixed concentration of internal standard compound (IS). The concentrations of analyte in plasma were determined using a high performance liquid chromatography/mass spectrometry (HPLC/MS/MS) method (Shimadzu LC-10ADVP and a Leap autosampler, Thermo Hypersil C18, 50 mm×2.1 mm, Mobile phase A: 0.1% formic acid; B: MeCN, Elution rate: 500 μL/min, Column temperature: 25° C., Injection volume: 10 μL, reverse phase elution from 10% organic to 90% organic in 5 min, Applied Biosystems API3000 triple-quadrupole instrument with a Turbo Ions Spray interface). The data acquisition and data processing were done using Analyst 1.4 software.
Experimental animal used were male Sprague-Dawley rats from Shanghai Sino-British SIPPR/BK Lab Animal Ltd, approximately 8 weeks of age (180-250 g body weight).

[4] = in vivo; settings: male, Sprague-Dawley, plasma, rat, read-out: T½ (terminal half life) (converted)
[5] = IV (intravenous), read-out: F (bioavailability)
[6] = PO (oral), read-out: F (oral bioavailability)
[7] = SC (subcutaneous), read-out: F (bioavailability)

T1 sequence (O42275 24-633): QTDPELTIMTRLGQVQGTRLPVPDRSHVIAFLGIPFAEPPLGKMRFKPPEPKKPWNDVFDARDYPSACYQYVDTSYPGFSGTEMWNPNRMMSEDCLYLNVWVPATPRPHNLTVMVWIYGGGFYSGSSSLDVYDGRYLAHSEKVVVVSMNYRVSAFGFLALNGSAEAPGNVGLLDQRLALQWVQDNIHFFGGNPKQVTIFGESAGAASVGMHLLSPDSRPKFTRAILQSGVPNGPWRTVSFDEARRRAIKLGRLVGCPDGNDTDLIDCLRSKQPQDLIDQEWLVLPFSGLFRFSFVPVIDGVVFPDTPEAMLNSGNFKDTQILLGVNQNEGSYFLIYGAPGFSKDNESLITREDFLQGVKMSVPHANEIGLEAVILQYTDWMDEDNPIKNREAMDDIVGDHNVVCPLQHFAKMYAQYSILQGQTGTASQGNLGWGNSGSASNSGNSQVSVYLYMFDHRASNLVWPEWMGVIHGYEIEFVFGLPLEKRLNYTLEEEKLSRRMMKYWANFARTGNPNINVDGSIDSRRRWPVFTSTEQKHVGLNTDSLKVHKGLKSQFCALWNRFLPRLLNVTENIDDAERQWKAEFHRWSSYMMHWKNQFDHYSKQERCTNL

Compound | IC50 [1] [nM] | LD50 at 7 day [2] [mg/kg] | bioavailability [3, 5] [%] | bioavailability [3, 6] [%] | bioavailability [3, 7] [%] | half-life ([4]; IV (intravenous)) [h] | half-life ([4]; PO (oral)) [h] | half-life ([4]; SC (subcutaneous)) [h]
COc1cc2c(cc1OC)C(=O)C(CC1(F)CCN(Cc3ccccc3)CC1)C2 (stereo not drawn) [IV-4, 2-((1-benzyl-4-fluoropiperidin-4-yl)methyl)-5,6-dimethoxy-2,3-dihydro-1H-inden-1-one] | 1.04 | 30 | – | – | – | – | – | –
COc1cc2c(cc1OC)C(=O)C(F)(CC1(F)CCN(Cc3ccccc3)CC1)C2 (stereo not drawn) [IV-8, 2-((1-benzyl-4-fluoropiperidin-4-yl)methyl)-2-fluoro-5,6-dimethoxy-2,3-dihydro-1H-inden-1-one] | 9.07 | > 45 | 100 | 37.2 | 70.5 | 8.5 | 12.7 | 6.8
COc1cc2c(cc1OC)C(=O)C(F)(CC1(F)CCN(Cc3ccc(F)cc3)CC1)C2 (stereo not drawn) [IV-11, 2-fluoro-2-((4-fluoro-1-(4-fluorobenzyl)piperidin-4-yl)methyl)-5,6-dimethoxy-2,3-dihydro-1H-inden-1-one] | 28.2 | > 50 | 100 | 28.2 | 100 | 3.1 | 11.8 | 7.9
